What was measured:
Assay type in all cases: cell-based
STAT3 = target: T1, STAT3 (Homo sapiens, UniProt P40763); experiment: HiBiT assay, STAT3 degradation in STAT3-HiBiT KI HeLa cells; settings: for DC50 / Dmax at 1 µM: 24 h; for DC50: read-out: STAT3 Degradation (HeLa 24 h HiBit) DC50
T1 construct: This cell line is a clone created by using CRISPR-Cas9 to fuse HiBiT to the 3′ end of STAT3 in HeLa cells; host or cells: STAT3-HiBiT KI HeLa cell line (CRISPR-Cas9 knock-in clone)
Procedure: STAT3 degradation may be determined by HiBiT assay. STAT3-HiBiT KI HeLa cell line, which is a clone created by using CRTISPR-Cas9 to fuse HiBiT to the 3′ end of STAT3 in HeLa cells, may be used for this assay. In a typical procedure, cells seeded at certain amounts of cells (e.g., 20000 cells) per well are incubated with serially diluted compounds for certain period of time (e.g., 24 hours) under certain conditions (e.g., at 37° C. with 5% CO2). At the end of treatment, Nano-Glo HiBiT Lytic Detection reagents is added to the wells and luminescence is acquired on TECAN SPARK plate reader. Untreated cells are used as control. Data points are fit with a four-parameter equation to generate a concentration-response curve. IC50 values are calculated using a nonlinear regression analysis of the mean±SD from triplicate.
STAT3-HiBiT KI HeLa cell line was purchased from Promega. This cell line is a clone created by using CRISPR-Cas9 to fuse HiBiT to the 3′ end of STAT3 in HeLa cells. DMEM medium and FBS were purchased from Gibco/Thermo Fisher Scientific. STAT3 degradation was determined based on quantification of luminescent signal using Nano-Glo HiBiT Lytic Detection System. In a typical procedure, cells seeded at 20000 cells per well in 96-well white plates (Corning) were incubated with serially diluted compounds for 24 hours at 37° C. with 5% CO2. At the end of treatment, Nano-Glo HiBiT Lytic Detection reagents was added to the wells and luminescence was acquired on TECAN SPARK plate reader. Untreated cells were used as control. Data points were fit with a four-parameter equation to generate a concentration-response curve. IC50 values were calculated using a nonlinear regression analysis of the mean±SD from triplicate.

SUP-M2 cells = experiment: CellTiter-Glo 2.0 cell viability assay, SUP-M2; settings: SUP-M2, 96 h, 4 days
Procedure: (§1) For example, cell viability may be determined by CellTiter-Glo 2.0 Cell Viability Assay. In a typical procedure, cells seeded at certain amounts of cells (e.g., 1000 cells) per well are incubated with serially diluted compounds for certain period (e.g., 4 days) under certain conditions (e.g., at 37° C. with 5% CO2). At the end of treatment, CellTiter-Glo 2.0 is added to the wells and luminescence is acquired on TECAN SPARK plate reader. Untreated cells are used as control, Data points are fit with an equation (e.g., a four-parameter equation) to generate a concentration-response curve. IC50 values are calculated using a nonlinear regression analysis of the mean±SD from triplicate.
(§2) SU-DHL-1 and SUP-M2 cell viability was determined by CellTiter-Glo 2.0 Cell Viability Assay (Promega). SU-DHL-1 cell line was purchased from ATCC (Manassas, VA) and SUP-M2 (ACC-509) was purchased from DSMZ (Germany). RPMI 1640 medium and fetal bovine serum (FBS) were purchased from Gibco/Thermo Fisher Scientific. In a typical procedure, cells seeded at 1000 cells per well in 384-well white plates (Corning) were incubated with serially diluted compounds for 4 days at 37° C. with 5% C02. At the end of treatment, CellTiter-Glo 2.0 was added to the wells and luminescence was acquired on TECAN SPARK plate reader. Untreated cells were used as control. Data points were fit with a four-parameter equation to generate a concentration-response curve. IC50 values were calculated using a nonlinear regression analysis of the mean±SD from triplicate.

SU-DHL-1 cells = experiment: CellTiter-Glo 2.0 cell viability assay, SU-DHL-1; settings: Homo sapiens, 96 h, 4 days
Procedure: as §1, §2

T1 sequence (P40763 whole entry): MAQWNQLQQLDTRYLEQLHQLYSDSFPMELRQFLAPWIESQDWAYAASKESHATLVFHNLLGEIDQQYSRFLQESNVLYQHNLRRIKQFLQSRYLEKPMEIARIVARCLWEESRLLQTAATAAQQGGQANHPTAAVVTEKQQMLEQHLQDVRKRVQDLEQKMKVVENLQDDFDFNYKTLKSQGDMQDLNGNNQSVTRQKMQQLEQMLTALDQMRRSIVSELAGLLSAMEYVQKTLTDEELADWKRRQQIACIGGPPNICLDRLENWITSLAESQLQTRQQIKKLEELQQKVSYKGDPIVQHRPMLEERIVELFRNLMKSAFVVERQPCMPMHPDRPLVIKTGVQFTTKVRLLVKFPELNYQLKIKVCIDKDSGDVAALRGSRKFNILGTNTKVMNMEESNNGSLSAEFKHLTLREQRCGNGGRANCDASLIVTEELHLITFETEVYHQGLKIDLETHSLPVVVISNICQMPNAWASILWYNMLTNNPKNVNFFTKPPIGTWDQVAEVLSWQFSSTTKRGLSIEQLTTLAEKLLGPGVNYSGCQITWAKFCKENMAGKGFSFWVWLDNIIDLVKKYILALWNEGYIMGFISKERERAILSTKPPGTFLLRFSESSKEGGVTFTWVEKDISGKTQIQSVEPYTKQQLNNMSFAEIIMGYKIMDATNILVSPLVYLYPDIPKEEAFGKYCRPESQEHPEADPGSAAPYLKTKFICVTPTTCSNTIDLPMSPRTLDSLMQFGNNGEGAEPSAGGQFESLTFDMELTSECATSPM

Row | Structure (SMILES) | DC50 (STAT3) [nM] | IC50 (SUP-M2 cells) [nM] | IC50 (SU-DHL-1 cells) [nM] | Dmax at 1 µM (STAT3; @1 μM) [%] | STAT3 Degradation (HeLa 24 h HiBit) Dmax (@1 μM) (STAT3; @1 μM)
1 | Cc1ncsc1-c1ccc([C@H](C)NC(=O)[C@@H]2C[C@@H](O)CN2C(=O)[C@@H](NC(=O)CCCCCCC(=O)N2CC[C@H]3CC[C@@H](C(=O)N[C@@H](CCC(N)=O)C(=O)NC(c4ccccc4)c4ccccc4)N3C(=O)[C@@H](NC(=O)c3cc4cc(C(=O)P(=O)(O)O)ccc4[nH]3)C2)C(C)(C)C)cc1 [Compound 51, (2-(((5S,8S,10aR)-8-(((S)-5-amino-1-(benzhydrylamino)-1,5-dioxopentan-2-yl)carbamoyl)-3-(8-(((S)-1-((2S,4R)-4-hydroxy-2-(((S)-1-(4-(4-methylthiazol-5-yl)phenyl)ethyl)carbamoyl)pyrrolidin-1-yl)-3,3-dimethyl-1-oxobutan-2-yl)amino)-8-oxooctanoyl)-6-oxodecahydropyrrolo[1,2-a][1,5]diazocin-5-yl)carbamoyl)-1H-indole-5-carbonyl)phosphonic acid] | 100 to 1000 | 100 to 1000 | 100 to 1000 |  | 
2 | CCS(=O)(=O)c1ccc(CNC(=O)[C@H](CCC(N)=O)NC(=O)[C@@H]2CC[C@@H]3CCN(C(=O)CCCCc4cn([C@H](C(=O)N5C[C@H](O)C[C@H]5C(=O)N[C@@H](C)c5ccc(-c6scnc6C)cc5)C(C)(C)C)nn4)C[C@H](NC(=O)c4cc5cc(C(=O)P(=O)(O)O)ccc5[nH]4)C(=O)N32)cc1 [Compound 11, (2-(((5S,8S,10aR)-8-(((S)-5-amino-1-((4-(ethylsulfonyl)benzyl)amino)-1,5-dioxopentan-2-yl)carbamoyl)-3-(5-(1-((S)-1-((2S,4R)-4-hydroxy-2-(((S)-1-(4-(4-methylthiazol-5-yl)phenyl)ethyl)carbamoyl)pyrrolidin-1-yl)-3,3-dimethyl-1-oxobutan-2-yl)-1H-1,2,3-triazol-4-yl)pentanoyl)-6-oxodecahydropyrrolo[1,2-a][1,5]diazocin-5-yl)carbamoyl)-1H-indole-5-carbonyl)phosphonic acid] | < 10 | < 10 | 10 to 100 | > 80 | 
3 | Cc1ncsc1-c1ccc([C@H](C)NC(=O)[C@@H]2C[C@@H](O)CN2C(=O)[C@@H](NC(=O)CCCCCCCC(=O)N2CC[C@H]3CC[C@@H](C(=O)N[C@@H](CCC(N)=O)C(=O)NC(c4ccccc4)c4ccccc4)N3C(=O)[C@@H](NC(=O)c3cc4cc(C(=O)P(=O)(O)O)ccc4[nH]3)C2)C(C)(C)C)cc1 [Compound 52, (2-(((5S,8S,10aR)-8-(((S)-5-amino-1-(benzhydrylamino)-1,5-dioxopentan-2-yl)carbamoyl)-3-(9-(((S)-1-((2S,4R)-4-hydroxy-2-(((S)-1-(4-(4-methylthiazol-5-yl)phenyl)ethyl)carbamoyl)pyrrolidin-1-yl)-3,3-dimethyl-1-oxobutan-2-yl)amino)-9-oxononanoyl)-6-oxodecahydropyrrolo[1,2-a][1,5]diazocin-5-yl)carbamoyl)-1H-indole-5-carbonyl)phosphonic acid] | 100 to 1000 | 100 to 1000 | 100 to 1000 |  | 
4 | Cc1ncsc1-c1ccc([C@H](C)NC(=O)[C@@H]2C[C@@H](O)CN2C(=O)[C@@H](n2cc(CCCCC(=O)N3CC[C@H]4CC[C@@H](C(=O)N[C@@H](CCC(N)=O)C(=O)NCc5cccc(Cl)c5)N4C(=O)[C@@H](NC(=O)c4cc5cc(C(=O)P(=O)(O)O)ccc5[nH]4)C3)nn2)C(C)(C)C)cc1 [Compound 10, (2-(((5S,8S,10aR)-8-(((S)-5-amino-1-((3-chlorobenzyl)amino)-1,5-dioxopentan-2-yl)carbamoyl)-3-(5-(1-((S)-1-((2S,4R)-4-hydroxy-2-(((S)-1-(4-(4-methylthiazol-5-yl)phenyl)ethyl)carbamoyl)pyrrolidin-1-yl)-3,3-dimethyl-1-oxobutan-2-yl)-1H-1,2,3-triazol-4-yl)pentanoyl)-6-oxodecahydropyrrolo[1,2-a][1,5]diazocin-5-yl)carbamoyl)-1H-indole-5-carbonyl)phosphonic acid] | 10 to 100 | 10 to 100 | 10 to 100 | > 80 | 
5 | CC(=O)N1CC[C@H]2CC[C@@H](C(=O)N[C@@H](CCC(N)=O)COc3cccc(CCCc4cn([C@H](C(=O)N5C[C@H](O)C[C@H]5C(=O)N[C@@H](C)c5ccc(-c6scnc6C)cc5)C(C)(C)C)nn4)c3Cl)N2C(=O)[C@@H](NC(=O)c2cc3cc(C(=O)P(=O)(O)O)ccc3[nH]2)C1 [Compound 1, (2-(((5S,8S,10aR)-3-acetyl-8-(((S)-5-amino-1-(2-chloro-3-(3-(1-((S)-1-((2S,4R)-4-hydroxy-2-(((S)-1-(4-(4-methylthiazol-5-yl)phenyl)ethyl)carbamoyl)pyrrolidin-1-yl)-3,3-dimethyl-1-oxobutan-2-yl)-1H-1,2,3-triazol-4-yl)propyl)phenoxy)-5-oxopentan-2-yl)carbamoyl)-6-oxodecahydropyrrolo[1,2-a][1,5]diazocin-5-yl)carbamoyl)-1H-indole-5-carbonyl)phosphonic acid] | < 10 | < 10 | < 10 | > 80 | 
6 | CCS(=O)(=O)c1ccc(CNC(=O)[C@H](CCC(N)=O)NC(=O)[C@@H]2CC[C@@H]3CCN(C(=O)CCCCCc4cn([C@H](C(=O)N5C[C@H](O)C[C@H]5C(=O)N[C@@H](COCCOCCOCCOC)c5ccc(-c6scnc6C)cc5)C(C)(C)C)nn4)C[C@H](NC(=O)c4cc5cc(C(=O)P(=O)(O)O)ccc5[nH]4)C(=O)N32)cc1 [Compound 45] | 10 to 100 | 10 to 100 |  | > 80 | 
7 | CCS(=O)(=O)c1ccc(CNC(=O)[C@H](CCC(N)=O)NC(=O)[C@@H]2CC[C@@H]3CCN(C(=O)CCCCCc4cn([C@H](C(=O)N5C[C@H](O)C[C@H]5C(=O)N[C@@H](COCCOCCOC)c5ccc(-c6scnc6C)cc5)C(C)(C)C)nn4)C[C@H](NC(=O)c4cc5cc(C(=O)P(=O)(O)O)ccc5[nH]4)C(=O)N32)cc1 [Compound 40] | 10 to 100 | 10 to 100 |  |  | A (A (>=80%))
8 | COCCOCCOCCOC[C@H](NC(=O)[C@@H]1C[C@@H](O)CN1C(=O)[C@@H](n1cc(CCCc2cccc(OC[C@H](CCC(N)=O)NC(=O)[C@@H]3CC[C@@H]4CCN(C(C)=O)C[C@H](NC(=O)c5cc6cc(C(=O)P(=O)(O)O)ccc6[nH]5)C(=O)N43)c2Cl)nn1)C(C)(C)C)c1ccc(-c2scnc2C)cc1 [Compound 35, (2-(((5S,8S,10aR)-3-acetyl-8-(((S)-5-amino-1-(2-chloro-3-(3-(1-((S)-1-((2S,4R)-4-hydroxy-2-(((R)-13-(4-(4-methylthiazol-5-yl)phenyl)-2,5,8,11-tetraoxatridecan-13-yl)carbamoyl)pyrrolidin-1-yl)-3,3-dimethyl-1-oxobutan-2-yl)-1H-1,2,3-triazol-4-yl)propyl)phenoxy)-5-oxopentan-2-yl)carbamoyl)-6-oxodecahydropyrrolo[1,2-a][1,5]diazocin-5-yl)carbamoyl)-1H-indole-5-carbonyl)phosphonic acid] | 10 to 100 | 10 to 100 |  | > 80 | 

From patent publication US20260226086A1, “COMPOUNDS AND COMPOSITIONS AS STAT3 DEGRADERS AND USES THEREOF” (REGENTS OF THE UNIVERSITY OF MICHIGAN, priority 2023, published 2026)
